# Laboratory results as given in US20090209605A1, “NEMATICIDAL COMPOSITIONS” (Devgen N.V., priority 2004, published 2009).
# How the values were obtained:
# Type in all cases: in vivo
# [1] = system: Meloidogyne incognita nematodes; test: Pot Assay 1: Meloidogyne infection of potato, egg masses/galls on roots; conditions: potato in pot, week 8 after inoculation
# In short: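 Potato (cv. Bintje) grown in sand pots at 14–18 °C in greenhouse. Compound in DMSO spread on sand one day before inoculation with ~1500 M. incognita juveniles; concentration assumes full diffusion in pot. Root galls counted 8 weeks post-inoculation, plant development also scored; triplicates, aldicarb and DMSO/untreated controls.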
# [2] = system: Meloidogyne nematodes; test: Pot Assay 2: Meloidogyne infection of tomato, % infestation of roots; conditions: RATE 0.05 mg; tomato in infested soil
# Procedure: The soil used in this assay originated from a plot, heavily infested with Meloidogyne nematodes. Part of this soil was sterilized by autoclaving and was used as negative control. Sandy soil, which was not infested with nematodes, was pursued from a commercial source.
# Plastic seedling trays with wells of 60 ml capacity were filled with about 40 ml of soil per well. 5 ml of water per well was used for irrigation.
# Compounds as described herein were tested in 4 different rates and with 12 replicates for each concentration. The compounds as described herein were stored as dry films of 4 different concentrations. The day of the application of the compounds, all the dry films were dissolved in 60 ml water and poured into the 12 replicate wells: 5 ml per well. Every tray of 12 wells was identified with a label, indicating compound and concentration used. The 4 final rates in the soil of the tested compound were approximately 0.05 mg, 0.20 mg, 1 mg and 5 mg. These amounts translate to field application rates respectively as 30, 120, 600 and 3000 g per hectare.
# 3-5 days after application of the tested compound, tomato seeds (cv. Rio Grande) were sown in the wells by hand, at about 2 cm deep. A light cover of vermiculite on the surface was used to avoid dehydration. Plants were irrigated by micro-nebulization 3-4 times per week at a rate of 3 L/m^2, weeded by hand and treated with fertilizers, fungicide and insecticides when needed.
# Their resistance against nematode infection was monitored and the efficacy of compounds described herein as a nematicide was measured. Furthermore the phytotoxicity of the test compounds was evaluated.
# Efficacy of the compounds described herein as nematicide was measured by giving the roots a percentage of infestation measured as follows. Plants were grown to reach good development of the roots, which corresponds to plants grown to about 10 cm high at about one month after emergence. After removal of the soil from the roots by rinsing with water, the roots were visually inspected and root galls were counted on 4 plants of the set of 12 replicate plants.
# Positive control plants were treated with a 10 micromolar concentration of oxamyl (Vydate, 10% SL; the rate of 10 micromolar corresponds to a commercial rate of 20 l/ha), a known nematicide. Negative controls involved double negative controls (no compound, sterile soil), and single negative controls (no compound, with nematode infested soil).
# [3] = system: tomato (cv. Rio Grande); test: Pot Assay 2: root development (vigor of roots) of tomato; conditions: RATE 0.05 mg; visual value 0 to 10 (10 equal to control)
# Procedure: Phytotoxicity of compounds as described herein when used as a nematicide, was measured as follows. […] At that moment, plant emergence was assessed for the plants treated with any of the compounds as described herein, by counting the number of plants per compound-concentration.
# Vigor of roots was also assessed once the plants are well established so as not to loose plants. To assess vigor of the plants or roots, a visual value ranging from 0 to 10 (0 no vigor, 10 equal to control) was scored per compound-concentration.
# [4] = system: root-knot nematode (Meloidogyne spp); test: Nematicide field trial on tomato: root galling and yield; conditions: for Average root galling: 0-5 Lamberti scale
# Procedure: (§1) Open field tomatoes (Lycopersicon esculentum, variety incas) were grown on sandy soil with a natural root-knot nematode (Meloidogyne spp) population. Soil samples, collected prior to planting, contained on average 113 J2 juveniles per 100 g soil. A program of 5 applications with intervals of about 14 days was started two days after transplantation.
# (§2) An experimental pattern at Complete Randomized Blocks with four replicas was adopted. Besides the experimental products, each test also included an untreated control and a treatment with the standard commercial product VYDATE 10L (10%) applied in accordance to label instructions.
# The read-outs are the average yield of the marketable tomatoes per plant (Table 7). The level of nematode attack of the root system at the time of harvesting was assessed by means of the lamberti scoring.
# [5] = system: root-knot nematode (Meloidogyne spp); test: Nematicide field trial on cucumber: root galling and yield; conditions: Product Rate 1500 g ai/ha
# Procedure: as §1, with “ground grown cucumber (Cucumis sativus cv Carine)” for “field tomatoes (Lycopersicon esculentum, variety incas)”, “8” for “113”, “4” for “5”, “six” for “two”
# as §2
# […] The level of nematode attack of the root system at the time of harvesting was assessed by means of the lamberti scoring.
# [6] = system: stubby root nematodes (Paratrichodorus), stunt nematodes (Tylenchorhynchus spp.), root lesion nematodes (Pratylenchus spp.) and root knot nematodes …; test: Nematicide field trial on carrots: % deformed carrots
# Procedure: Garden carrots were grown in the open field. The soil contained high levels of stubby root nematodes (Paratrichodorus), stunt nematodes (Tylenchorhynchus spp.), root lesion nematodes (Pratylenchus spp.) and root knot nematodes (Meloidogyne spp.).
# as §2
# In carrots, nematodes cause deformation such as stunting, dwarfing, twisting, splitting and bearding. For these experiments, the total percentage of deformed carrots were considered, as these are not marketed for human consumption and are of no commercial interest.
# Three different tests have been performed (Tables 9, 10 and 11), each containing an untreated and commercial reference control. All treatments were statistically different from untreated control.
# [7] = Product Rate 4 (footnote g ai/ha)
# [8] = Product Rate 8 (footnote g ai/ha)
smiles,measurement,setting,value
CCCCc1c(C)nc(NCC)nc1OS(=O)(=O)N(C)C [XLIII],"number of egg masses (galls) on roots, Replicate 3",[1]; 0.5 μM,30
same,"number of egg masses (galls) on roots, Replicate 2",[1]; 2 μM,35
same,"number of egg masses (galls) on roots, Replicate 3",[1]; 2 μM,25
same,"number of egg masses (galls) on roots, Replicate 1",[1]; 10 μM,15
same,"number of egg masses (galls) on roots, Replicate 2",[1]; 10 μM,5
same,"number of egg masses (galls) on roots, Replicate 3",[1]; 10 μM,10
same,"number of egg masses (galls) on roots, Replicate 1",[1]; 50 μM,0
same,"number of egg masses (galls) on roots, Replicate 2",[1]; 50 μM,15
same,"number of egg masses (galls) on roots, Replicate 3",[1]; 50 μM,5
same,% INF. (% Infestation),[2],1.3%
same,ROOT DEV.,[3],7.8
same,Average yield of marketable fruits,[4]; [7],1.28 kg/plant/pot
same,Average root galling,[4]; [7],1.1
same,Average yield of marketable fruits,[4]; [8],1.25 kg/plant/pot
same,Average root galling,[4]; [8],1.6
same,Average yield of marketable fruits,[5],8.7 kg/plant/pot
same,Average root galling,[5]; 0-5 Lamberti scale,1.5
same,% total deformed,"[6]; test of Table 9, Product Rate 500 g ai/ha",35.53%
same,% total deformed,"[6]; test of Table 9, Product Rate 1500 g ai/ha",41.34%
same,% total deformed,"[6]; test of Table 9, Product Rate 3000 g ai/ha",41.02%
